For 24 molecules, IC50 results are on record in patent US20130344026A1, “Dimeric Smac Mimetics” (priority 2009, published 2013).

The subject of this assay is PANC-1 cells. Kind of assay: cell viability assay in PANC-1 cells (compound alone, + 100 ng/ml TNFa, + 300 ng/ml TRAIL). The assay is classed as cell-based.
The mark [1] stands for this setting: Homo sapiens, PANC-1, compound alone, Tables 6-10, read-out: IC50 (μM) in cell viability assay in PANC-1 cells: Compound alone.
Setting [2] is: with 100 ng/ml TNFa, Tables 6-10, read-out: IC50 (μM) in cell viability assay in PANC-1 cells: Compound + 100 ng/ml TNFa.
[3] abbreviates: with 300 ng/ml TRAIL, Tables 6-10, read-out: IC50 (μM) in cell viability assay in PANC-1 cells: Compound + 300 ng/ml TRAIL.
Setting [4] is: Homo sapiens, PANC-1 cells, compound alone, read-out: IC50 (uM) in cell viability assay in PANC-1 cells, Cmpnd alone.
The mark [5] stands for this setting: Homo sapiens, PANC-1, compound alone, Tables 15-18, read-out: IC50 (uM) in cell viability assay in PANC-1 cells: Cmpnd alone.
The mark [6] stands for this setting: with 100 ng/ml TNFa, Tables 15-18, read-out: IC50 (uM) in cell viability assay in PANC-1 cells: Cmpnd + 100 ng/ml TNFa.
Where [7] appears, read: with 300 ng/ml TRAIL, Tables 15-18, read-out: IC50 (uM) in cell viability assay in PANC-1 cells: Cmpnd + 300 ng/ml TRAIL.

Read-outs that look alike come from different tables or passages of the source. Where only a bound is given, the exact number is not on record here.

With `CN[C@@H](C)C(=O)N[C@H](C(=O)N1C[C@@H](NC(=O)c2cccc(C(=O)N[C@H]3C[C@@H](C(=O)NCCc4ccc(O)c(O)c4)N(C(=O)[C@@H](NC(=O)[C@H](C)NC)C(C)(C)C)C3)c2)C[C@H]1C(=O)NCCc1ccc(O)c(O)c1)C(C)(C)C` [Compound 9], the IC50 under setting [1] was > 1 µM, the IC50 under setting [2] was > 1 µM and the IC50 under setting [3] was > 1 µM.

Take `CN[C@@H](C)C(=O)N[C@@H](CCCCNC(=O)c1cccc(C(=O)N[C@H]2C[C@@H](C(=O)N[C@@H]3CCCc4ccccc43)N(C(=O)[C@@H](NC(=O)[C@H](C)NC)C(C)(C)C)C2)c1)C(=O)N1CCC[C@H]1C(=O)NC(c1ccccc1)c1ccccc1` [Compound 184]: the IC50 by setting is: under setting [1], > 1 µM; under setting [2], 0.027 µM; under setting [3], 0.076 µM.

With `CN[C@@H](C)C(=O)N[C@@H](CCCCCC[C@H](NC(=O)[C@H](C)NC)C(=O)N1CC(F)(F)C[C@H]1C(=O)N[C@@H]1CCCc2ccccc21)C(=O)N1CC(F)(F)C[C@H]1C(=O)N[C@@H]1CCCc2ccccc21` [Compound 109], the IC50 reads like this: under setting [1], > 1 µM; under setting [2], 0.004 µM; under setting [3], 0.003 µM.

With `CN[C@@H](C)C(=O)N[C@H](C(=O)N1CCC[C@H]1CN1C(=O)OC[C@@H]1Cc1ccccc1)[C@@H](C)OCCCCCCO[C@H](C)[C@H](NC(=O)[C@H](C)NC)C(=O)N1CCC[C@H]1CN1C(=O)OC[C@@H]1Cc1ccccc1` [Compound 84], the IC50 runs as follows: under setting [1], > 1 µM; under setting [2], > 1 µM; under setting [3], > 1 µM.

Consider `CN[C@@H](C)C(=O)N[C@H](C(=O)N1C[C@@H](NC(=O)c2cccc(C(=O)N[C@H]3C[C@@H](C(=O)NC4CCSc5ccccc54)N(C(=O)[C@@H](NC(=O)[C@H](C)NC)C(C)(C)C)C3)c2)C[C@H]1C(=O)NC1CCSc2ccccc21)C(C)(C)C` (single isomer, unassigned) [Compound 67], for which the IC50 under setting [1] was > 1 µM, the IC50 under setting [2] worked out at 0.191 µM and the IC50 under setting [3] was determined as 0.22 µM.

For the molecule `CN[C@@H](C)C(=O)N[C@H](C(=O)N1C[C@@H](OC(=O)c2cccc(C(=O)O[C@H]3C[C@@H](C(=O)N[C@H]4CCCc5ccccc54)N(C(=O)[C@@H](NC(=O)[C@H](C)NC)C(C)(C)C)C3)c2)C[C@H]1C(=O)N[C@H]1CCCc2ccccc21)C(C)(C)C` [Compound P3-105], the IC50 under setting [4] is > 1 µM.

As to `CN[C@@H](C)C(=O)N[C@H](C(=O)N1CCC[C@H]1C(=O)N[C@H]1c2ccccc2C[C@@H]1OCCCCCCO[C@H]1Cc2ccccc2[C@@H]1NC(=O)[C@@H]1CCCN1C(=O)[C@@H](NC(=O)[C@H](C)NC)C(C)(C)C)C(C)(C)C` [Compound 122], the IC50 reads like this: under setting [1], > 1 µM; under setting [2], 0.0015 µM; under setting [3], 0.0014 µM.

Consider `CN[C@@H](C)C(=O)Nc1nc(-c2ccccc2)c(C(=O)NCCc2cn([C@H]3C[C@@H](C(=O)N[C@@H]4CCCc5ccccc54)N(C(=O)[C@@H](NC(=O)[C@H](C)NC)C(C)(C)C)C3)nn2)s1` [Compound 196], for which the IC50 by setting is: under setting [1], > 1 µM; under setting [2], 0.577 µM; under setting [3], 0.622 µM.

For `CN[C@@H](C)C(=O)N[C@@H](CCC(=O)Nc1ccc2c(c1)Cc1cc(NC(=O)CC[C@H](NC(=O)[C@H](C)NC)C(=O)N3CCC[C@H]3C(=O)N[C@@H]3CCCc4ccccc43)ccc1-2)C(=O)N1CCC[C@H]1C(=O)N[C@@H]1CCCc2ccccc21` [Compound 117], the IC50 under setting [1] is > 1 µM, the IC50 under setting [2] came to 0.02 µM and the IC50 under setting [3] turned out to be 0.025 µM.

In the case of `CN[C@@H](C)C(=O)N[C@H](C(=O)N[C@@H](CCNC(=O)c1cccc(C(=O)N[C@H]2C[C@@H](C(=O)N[C@@H]3CCCc4ccccc43)N(C(=O)[C@@H](NC(=O)[C@H](C)NC)C(C)(C)C)C2)c1)C(=O)N[C@@H]1CCCc2ccccc21)C(C)C` [Compound 170], the IC50 runs as follows: under setting [1], > 1 µM; under setting [2], 0.015 µM; under setting [3], 0.015 µM.

As for `CN[C@@H](C)C(=O)N[C@@H](CCNC(=O)c1ccc(-c2ccc(C(=O)NCC[C@H](NC(=O)[C@H](C)NC)C(=O)N3CCC[C@H]3C(=O)N[C@@H]3CCCc4ccccc43)cc2)cc1)C(=O)N1CCC[C@H]1C(=O)N[C@@H]1CCCc2ccccc21` [Compound P2-50], the IC50 is, setting by setting: under setting [5], > 1 µM; under setting [6], 0.067 µM; under setting [7], 0.019 µM.

`CN[C@@H](C)C(=O)N[C@@H](CC#CC#CC[C@H](NC(=O)[C@H](C)NC)C(=O)N1CCC[C@H]1CNC(=O)c1ccccn1)C(=O)N1CCC[C@H]1CNC(=O)c1ccccn1` [Compound 15]: the IC50 runs as follows: under setting [1], > 1 µM; under setting [2], 0.209 µM; under setting [3], 0.235 µM.

Take `CN[C@@H](C)C(=O)N[C@@H]1CCN(C(=O)c2ccc(C(=O)N[C@H]3C[C@@H](C(=O)N[C@@H]4CCCc5ccccc54)N(C(=O)[C@@H](NC(=O)[C@H](C)NC)C(C)(C)C)C3)cc2)C1` [Compound 186]: the IC50 was > 1 µM under setting [1], 0.56 µM under setting [2] and 0.55 µM under setting [3].

Take `CN[C@@H](C)C(=O)N[C@@H](CCCCCC[C@H](NC(=O)[C@H](C)NC)C(=O)N1CCC[C@H]1CNC(=O)c1cc2ccccc2cc1OC)C(=O)N1CCC[C@H]1CNC(=O)c1cc2ccccc2cc1OC` [Compound 38]: the IC50 runs as follows: under setting [1], > 1 µM; under setting [2], > 1 µM; under setting [3], > 1 µM.

With `CN[C@@H](C)C(=O)N[C@H](C(=O)N1CCC[C@H]1c1cc(C(=O)OC)c(-c2cn(CCCCCCn3cc(-c4oc([C@@H]5CCCN5C(=O)[C@@H](NC(=O)[C@H](C)NC)C(C)(C)C)cc4C(=O)OC)c4ccccc43)c3ccccc23)o1)C(C)(C)C` [Compound P4-27], the IC50 is, setting by setting: under setting [5], > 1 µM; under setting [6], 0.0243 µM; under setting [7], 0.0294 µM.

Take `CN[C@@H](C)C(=O)N[C@H](C(=O)N1C[C@@H](NC(=O)c2cccc(C(=O)N[C@H]3C[C@@H](C(=O)N[C@H](C)c4ccccn4)N(C(=O)[C@@H](NC(=O)[C@H](C)NC)C(C)(C)C)C3)c2)C[C@H]1C(=O)N[C@H](C)c1ccccn1)C(C)(C)C` [Compound 25]: the IC50 is > 1 µM under setting [1], 0.375 µM under setting [2] and 0.293 µM under setting [3].

With `CN[C@@H](C)C(=O)N[C@H](C(=O)N1C[C@@H](NC(=O)c2cccc(C(=O)N[C@H]3C[C@@H](C(=O)N[C@@H]4CCCc5cc(O)ccc54)N(C(=O)[C@@H](NC(=O)[C@H](C)NC)C(C)(C)C)C3)c2)C[C@H]1C(=O)N[C@@H]1CCCc2cc(O)ccc21)C(C)(C)C` (single isomer, unassigned) [Compound 61], the IC50 under setting [1] is > 1 µM, the IC50 under setting [2] was 0.324 µM and the IC50 under setting [3] amounted to 0.439 µM.

Consider `CN[C@@H](C)C(=O)N[C@H](C(=O)N1C[C@@H](NC(=O)c2cccc(C(=O)N[C@H]3C[C@@H](C(=O)NC4CCCc5cc(Br)ccc54)N(C(=O)[C@@H](NC(=O)[C@H](C)NC)C(C)(C)C)C3)c2)C[C@H]1C(=O)NC1CCCc2cc(Br)ccc21)C(C)(C)C` (single isomer, unassigned) [Compound 75], for which the IC50 is, setting by setting: under setting [1], > 1 µM; under setting [2], 0.018 µM; under setting [3], 0.013 µM.

As for `CCCC[C@H](C)NC(=O)c1cc(C(=O)N[C@H]2C[C@@H](C(=O)N[C@@H]3CCCc4ccccc43)N(C(=O)[C@@H](NC(=O)[C@H](C)NC)C(C)(C)C)C2)cc(C(=O)N[C@H]2C[C@@H](C(=O)N[C@@H]3CCCc4ccccc43)N(C(=O)[C@@H](NC(=O)[C@H](C)NC)C(C)(C)C)C2)c1` [Compound 130], the IC50 is, setting by setting: under setting [1], > 1 µM; under setting [2], 0.018 µM; under setting [3], 0.019 µM.

For `CN[C@@H](C)C(=O)N[C@H](C(=O)N1C[C@@H](NC(=O)c2cc(C(=O)NCCN)cc(C(=O)N[C@H]3C[C@@H](C(=O)N[C@@H]4CCCc5ccccc54)N(C(=O)[C@@H](NC(=O)[C@H](C)NC)C(C)(C)C)C3)c2)C[C@H]1C(=O)N[C@@H]1CCCc2ccccc21)C(C)(C)C` [Compound 126], the IC50 is > 1 µM under setting [1], 0.023 µM under setting [2] and 0.028 µM under setting [3].

Regarding `CN[C@@H](C)C(=O)N[C@H](C(=O)N1C[C@@H](N(C)C(=O)c2cc(C(=O)N(C)[C@H]3C[C@@H](C(=O)N[C@H](C)c4ccccc4)N(C(=O)[C@@H](NC(=O)[C@H](C)NC)C(C)(C)C)C3)[nH]n2)C[C@H]1C(=O)N[C@H](C)c1ccccc1)C(C)(C)C` [Compound P3-109], the IC50 under setting [4] is > 1 µM; the IC50 (PANC-1 cells, + 100 ng/ml TNFa, read-out: IC50 (uM) in cell viability assay in PANC-1 cells, Cmpnd + 100 ng/ml TNFa) was found to be 0.028 µM; the IC50 (PANC-1 cells, + 300 ng/ml TRAIL, read-out: IC50 (uM) in cell viability assay in PANC-1 cells, Cmpnd + 300 ng/ml TRAIL) came to 0.049 µM.

As for `CN[C@@H](C)C(=O)N[C@@H](CCCCCC[C@H](NC(=O)[C@H](C)NC)C(=O)N1CCC[C@H]1CNC(=O)c1c(OC)cccc1OC)C(=O)N1CCC[C@H]1CNC(=O)c1c(OC)cccc1OC` [Compound 35], the IC50 is > 1 µM under setting [1], > 1 µM under setting [2] and > 1 µM under setting [3].

For `CN[C@@H](C)C(=O)N[C@H](C(=O)N[C@@H](CCNC(=O)c1cccc(C(=O)N[C@H]2C[C@@H](C(=O)N[C@@H]3CCCc4ccccc43)N(C(=O)[C@@H](NC(=O)[C@H](C)NC)C(C)(C)C)C2)c1)C(=O)N[C@H](C)c1ccccc1)C(C)C` [Compound 175], the IC50 is > 1 µM under setting [1], 0.0163 µM under setting [2] and 0.0357 µM under setting [3].

For `CN[C@@H](C)C(=O)N[C@H](C(=O)N1CCC[C@H]1CN(CCc1ccccc1)C(=O)C(F)(F)F)[C@@H](C)OCC#CC#CCN(C(=O)[C@H](C)NC)[C@H](C(=O)N1CCC[C@H]1CN(CCc1ccccc1)C(=O)C(F)(F)F)[C@@H](C)O` [Compound P4-19], the IC50 runs as follows: under setting [5], > 1 µM; under setting [6], 0.005 µM; under setting [7], 0.006 µM.
